The test system of the experiment is HIV-1. The experiment is described as follows: Viral infectivity test on HeLa P4 cells. Type of experiment: cell-based. Here is the method:
FIG. 2: Effects of G4 ligands compared with AZT on HIV-1 infectivity using the HeLa P4 cell system for studying the replication of HIV-1. The HeLa P4 cells contain a gene lacZ encoding beta-galactosidase under the control of the viral LTR and whose transcription is activated by the viral protein Tat. The cells are incubated with the ligand then infected with HIV-1. After 24 hours the activity of beta-galactosidase, which is proportional to the infectivity of the virus is then measured on a fluorescence plate reader.
C. Cell lines and viruses: HeLa P4 cells encoding a Tat-inducible β-galactosidase were maintained in DMEM medium (Invitrogen) supplemented with 10% inactivated FCS, 1 mg/ml geneticin (G418, Gibco-BRL), gentamycin. MT4 and H9LaI cells were grown in RPMI 1640 glutamax medium (Invitrogen) supplemented with 10% inactivated FCS. HIV-1 viruses were obtained after 48 h co-culture of MT4 cells (0.5×10^6/ml) and H9Laï cells (1×10^6/ml), chronically infected by HIV-1LaI isolate, in RPMI 1640 glutamax medium supplemented with 10% inactivated FCS, at 37° C. under humidified atmosphere and […]. […]
D. Viral infectivity test: The G4 ligands are incubated in presence of the HelaP4 cells 20 minutes before infection. […] After 24 h, the reaction was measured in a fluorescence microplate reader (Cytofluor II, Applied Biosystems) at 360/460 nm Ex/Em.

The IC50 is the point on the concentration scale where inhibition reaches its midpoint. Read a low IC50 as greater potency. `Cc1cn([C@H]2C[C@H](N=[N+]=[N-])[C@@H](CO)O2)c(=O)[nH]c1=O` [AZT] showed an IC50 (24 h of infection, beta-galactosidase readout) of 0.04 µM.

For the molecule `C[n+]1ccc(-c2c3nc(c(-c4cc[n+](C)cc4)c4ccc([nH]4)c(-c4cc[n+](C)cc4)c4ccc([nH]4)c(-c4cc[n+](C)cc4)c4nc2C=C4)C=C3)cc1` [Tmpyp4], the “inhibition of viral replication” value was “weak inhibitors of viral replication”.

The record behind these values is patent US11046704B2, “Derivatives of porphyrins, their process of preparation and their use for treating viral infections” (INSTITUT NATIONAL DE LA SANTE ET DE LA RECHERCHE MEDICALE …, priority 2015, dated 2021).
